{"source": "patent US10987371B2", "about": "(priority 2017, dated 2021)", "key": {"Ebola": {"test_system": "Ebola", "settings": "mouse, in vivo; cited from earlier work"}, "ZIKV PLCal_ZV [1]": {"test_system": "ZIKV PLCal_ZV", "test": "microbe, parasite or virus in culture", "type": "cell-based", "settings": "Zika virus, Vero"}, "[2]": {"settings": "in vivo"}, "Vero E6 cells": {"test_system": "Vero E6 cells", "settings": "African green monkey"}, "ZIKV PLCal_ZV [3]": {"test_system": "ZIKV PLCal_ZV", "type": "cell-based"}, "ZIKV PRVABC59 isolate": {"test_system": "ZIKV PRVABC59 isolate", "settings": "mouse, in vivo"}, "in vivo": {"test": "in vivo", "settings": "male, C57BL/6, mouse"}, "[4]": {"settings": "human"}, "[5]": {"test_system": "ZIKV nonstructural protein 1 (NS1)", "type": "cell-based"}}, "data": [{"smiles": "CCC(CC)COC(=O)[C@H](C)N[P@](=O)(OC[C@H]1O[C@@](C#N)(c2ccc3c(N)ncnn23)[C@H](O)[C@@H]1O)Oc1ccccc1", "note": "[GS-5734]", "values": [{"measurement": "protection in mice", "setting": "Ebola", "value": 100, "unit": "%"}]}, {"smiles": "O=c1c(O[C@@H]2O[C@H](CO)[C@@H](O)[C@H](O)[C@H]2O)c(-c2ccc(O)c(O)c2)oc2cc(O)cc(O)c12", "note": "[Q3G, Quercetin-3-β-O-D-glucoside]", "values": [{"measurement": "EC50", "setting": "ZIKV PLCal_ZV [1]; read-out: EC50 against ZIKV PLCal_ZV", "value": "1200 to 1300", "unit": "nM"}, {"measurement": "EC90", "setting": "ZIKV PLCal_ZV [1]; read-out: EC90 against ZIKV PLCal_ZV", "value": "~1500", "unit": "nM"}, {"measurement": "time within which all mice died", "setting": "[2]; male, C57BL/6, mouse, ip, 400 mg/kg", "value": "≤ 2", "unit": "days"}, {"measurement": "survival and signs of toxicity", "setting": "[2]; mouse", "value": "without signs of toxicity"}, {"measurement": "deaths", "setting": "[2]; mouse, ip, 200 mg/kg", "value": "One mouse"}, {"measurement": "weight loss of the surviving mice", "setting": "[2]; mouse, ip, 200 mg/kg", "value": "~15", "unit": "%"}, {"measurement": "cell viability", "setting": "Vero E6 cells", "value": 100, "unit": "%"}, {"measurement": "concentration at which complete inhibition of cytopathic effects (CPE) was observed", "setting": "ZIKV PLCal_ZV [3]", "value": 6.9, "unit": "µM"}, {"measurement": "average weight loss", "setting": "ZIKV PRVABC59 isolate", "value": "~20", "unit": "%"}, {"measurement": "animals surviving the infection", "setting": "ZIKV PRVABC59 isolate; ip, 50 mg/kg", "value": 50, "unit": "%"}, {"measurement": "NOAEL", "setting": "in vivo", "value": 100, "unit": "mg/kg"}, {"measurement": "calculated maximum recommended starting dose (MRSD)", "setting": "[4]", "value": 0.813, "unit": "mg/kg"}, {"measurement": "daily dose to start clinical trials", "setting": "[4]", "value": 56.91, "unit": "mg"}, {"measurement": "concentrations with statistically significant reductions in NS1", "setting": "[5]", "value": "≥ 0.6", "unit": "µM"}]}, {"smiles": "NC(=O)c1nc(F)c[nH]c1=O", "note": "[T-705]", "values": [{"measurement": "protection in IFNAR-/- mice", "setting": "Ebola", "value": 100, "unit": "%"}]}, {"smiles": "CCN(CC)CCOc1ccc(C(=C(Cl)c2ccccc2)c2ccccc2)cc1", "note": "[clomiphene]", "values": [{"measurement": "protection of mice", "setting": "Ebola", "value": 90, "unit": "%"}]}, {"smiles": "CN(C)CCOc1ccc(/C(=C(/CCCl)c2ccccc2)c2ccccc2)cc1", "note": "[toremifene]", "values": [{"measurement": "protection of mice", "setting": "Ebola", "value": 50, "unit": "%"}]}]}
